Measurements from the NIST ThermoML archive (doi:10.1021/acs.jced.9b00237).

Assay: xn = mol fraction of the nth substance listed
Conditions: 100 kPa, Liquid; for viscosity: Concentric cylinders viscometry; for mass density: Vibrating tube method

C[N+](C)(C)CCO.[Cl-] [choline chloride] + Oc1ccccc1
Conditions	mass density, 293.15 K [kg/m3]	mass density, 303.15 K [kg/m3]	mass density, 313.15 K [kg/m3]	mass density, 323.15 K [kg/m3]	mass density, 333.15 K [kg/m3]	viscosity, 293.15 K [mPa·s]	viscosity, 303.15 K [mPa·s]	viscosity, 313.15 K [mPa·s]	viscosity, 323.15 K [mPa·s]	viscosity, 333.15 K [mPa·s]
x1 = 0.2	1093	1087	1080	1073	1067	39	24.67	16.69	11.83	8.825
x1 = 0.25	1096	1089	1083	1077	1071	58.16	35.76	23.53	16.42	12.02
